Data as given in the NIST ThermoML archive (doi:10.1016/j.jct.2006.01.008).

Test: mn = molality of the nth substance listed, in mol/kg
Details: Liquid

O=[N+]([O-])[O-].[Li+] [lithium nitrate] + CO
Details	mass density [kg/m3]
298.15 K, 124 kPa, m1 = 0.1551	794.38
298.15 K, 125 kPa, m1 = 0.2943	800.98
298.15 K, 254 kPa, m1 = 0.8904	826.51
298.15 K, 4856 kPa, m1 = 0.1551	798.86
298.15 K, 5035 kPa, m1 = 0.2943	805.54
298.15 K, 5745 kPa, m1 = 0.8904	831.27
298.15 K, 10235 kPa, m1 = 0.2943	810.19
298.15 K, 10235 kPa, m1 = 0.8904	835.02
298.15 K, 11542 kPa, m1 = 0.1551	804.92
298.15 K, 15247 kPa, m1 = 0.2943	814.48
298.15 K, 15625 kPa, m1 = 0.8904	839.35
298.15 K, 16024 kPa, m1 = 0.1551	808.79
298.15 K, 19745 kPa, m1 = 0.1551	811.89
298.15 K, 20056 kPa, m1 = 0.2943	818.43
298.15 K, 20856 kPa, m1 = 0.8904	843.37
298.15 K, 25158 kPa, m1 = 0.2943	822.44
298.15 K, 25656 kPa, m1 = 0.8904	846.91
298.15 K, 25856 kPa, m1 = 0.1551	816.76
298.15 K, 30142 kPa, m1 = 0.1551	820.02
298.15 K, 30235 kPa, m1 = 0.2943	826.24
298.15 K, 30254 kPa, m1 = 0.8904	850.16
298.15 K, 35626 kPa, m1 = 0.8904	853.78
298.15 K, 35751 kPa, m1 = 0.2943	830.16
298.15 K, 35785 kPa, m1 = 0.1551	824.09
298.15 K, 39875 kPa, m1 = 0.2943	832.95
298.15 K, 39897 kPa, m1 = 0.1551	826.91
298.15 K, 39957 kPa, m1 = 0.8904	856.57
298.27 K, 205 kPa, m1 = 3.614	928.48
298.27 K, 5001 kPa, m1 = 3.614	931.92
298.27 K, 10011 kPa, m1 = 3.614	935.38
298.27 K, 15005 kPa, m1 = 3.614	938.69
298.27 K, 19984 kPa, m1 = 3.614	941.89
298.27 K, 25008 kPa, m1 = 3.614	945.02
298.27 K, 30003 kPa, m1 = 3.614	948.03
298.27 K, 35001 kPa, m1 = 3.614	950.96
298.27 K, 40010 kPa, m1 = 3.614	953.79
298.28 K, 189 kPa, m1 = 1.803	863.5
298.28 K, 205 kPa, m1 = 0.5393	811.38
298.28 K, 4985 kPa, m1 = 0.5393	815.76
298.28 K, 4986 kPa, m1 = 1.803	867.42
298.28 K, 9983 kPa, m1 = 1.803	871.31
298.28 K, 9995 kPa, m1 = 0.5393	820.13
298.28 K, 14986 kPa, m1 = 1.803	875.06
298.28 K, 15005 kPa, m1 = 0.5393	824.3
298.28 K, 19989 kPa, m1 = 1.803	878.65
298.28 K, 19996 kPa, m1 = 0.5393	828.26
298.28 K, 24989 kPa, m1 = 1.803	882.11
298.28 K, 24994 kPa, m1 = 0.5393	832.06
298.28 K, 29989 kPa, m1 = 1.803	885.44
298.28 K, 29991 kPa, m1 = 0.5393	835.71
298.28 K, 34990 kPa, m1 = 1.803	888.67
298.28 K, 34996 kPa, m1 = 0.5393	839.23
298.28 K, 39995 kPa, m1 = 0.5393	842.62
298.28 K, 39997 kPa, m1 = 1.803	891.8
323.15 K, 215 kPa, m1 = 0.8904	804.21
323.15 K, 321 kPa, m1 = 0.2943	777.56
323.15 K, 412 kPa, m1 = 0.1551	770.76
323.15 K, 5026 kPa, m1 = 0.8904	809.05
323.15 K, 5087 kPa, m1 = 0.2943	782.63
323.15 K, 5784 kPa, m1 = 0.1551	776.58
323.15 K, 9859 kPa, m1 = 0.1551	780.81
323.15 K, 10214 kPa, m1 = 0.8904	814.03
323.15 K, 10862 kPa, m1 = 0.2943	788.49
323.15 K, 15038 kPa, m1 = 0.2943	792.54
323.15 K, 15864 kPa, m1 = 0.8904	819.19
323.15 K, 16173 kPa, m1 = 0.1551	787.05
323.15 K, 19786 kPa, m1 = 0.1551	790.45
323.15 K, 20247 kPa, m1 = 0.8904	823
323.15 K, 20742 kPa, m1 = 0.2943	797.81
323.15 K, 25168 kPa, m1 = 0.2943	801.7
323.15 K, 25632 kPa, m1 = 0.8904	827.45
323.15 K, 26297 kPa, m1 = 0.1551	796.26
323.15 K, 30058 kPa, m1 = 0.8904	830.92
323.15 K, 30685 kPa, m1 = 0.2943	806.29
323.15 K, 31035 kPa, m1 = 0.1551	800.23
323.15 K, 35027 kPa, m1 = 0.2943	809.7
323.15 K, 35214 kPa, m1 = 0.8904	834.74
323.15 K, 35748 kPa, m1 = 0.1551	803.97
323.15 K, 39867 kPa, m1 = 0.1551	807.06
323.15 K, 39867 kPa, m1 = 0.8904	837.98
323.15 K, 40002 kPa, m1 = 0.2943	813.4
323.23 K, 206 kPa, m1 = 3.614	908.05
323.23 K, 211 kPa, m1 = 0.5393	788.49
323.23 K, 234 kPa, m1 = 1.803	842.01
323.23 K, 4982 kPa, m1 = 3.614	911.88
323.23 K, 4988 kPa, m1 = 1.803	846.4
323.23 K, 4989 kPa, m1 = 0.5393	793.5
323.23 K, 9987 kPa, m1 = 3.614	915.71
323.23 K, 9991 kPa, m1 = 0.5393	798.45
323.23 K, 10005 kPa, m1 = 1.803	850.8
323.23 K, 14993 kPa, m1 = 3.614	919.41
323.23 K, 14999 kPa, m1 = 0.5393	803.13
323.23 K, 15005 kPa, m1 = 1.803	854.96
323.23 K, 19987 kPa, m1 = 3.614	922.95
323.23 K, 19992 kPa, m1 = 1.803	858.94
323.23 K, 19999 kPa, m1 = 0.5393	807.57
323.23 K, 24991 kPa, m1 = 3.614	926.36
323.23 K, 24995 kPa, m1 = 1.803	862.77
323.23 K, 24997 kPa, m1 = 0.5393	811.8
323.23 K, 29993 kPa, m1 = 0.5393	815.84
323.23 K, 29998 kPa, m1 = 3.614	929.67
323.23 K, 30014 kPa, m1 = 1.803	866.46
323.23 K, 34988 kPa, m1 = 0.5393	819.71
323.23 K, 34989 kPa, m1 = 3.614	932.86
323.23 K, 34999 kPa, m1 = 1.803	869.98
323.23 K, 39993 kPa, m1 = 3.614	935.96
323.23 K, 39995 kPa, m1 = 0.5393	823.45
323.23 K, 39997 kPa, m1 = 1.803	873.39
348.15 K, 381 kPa, m1 = 0.1551	746.07
348.15 K, 409 kPa, m1 = 0.8904	781.31
348.15 K, 425 kPa, m1 = 0.2943	753.31
348.15 K, 5068 kPa, m1 = 0.1551	751.95
348.15 K, 5124 kPa, m1 = 0.2943	759.07
348.15 K, 5124 kPa, m1 = 0.8904	786.59
348.15 K, 10572 kPa, m1 = 0.2943	765.41
348.15 K, 10865 kPa, m1 = 0.8904	792.73
348.15 K, 10875 kPa, m1 = 0.1551	758.86
348.15 K, 15038 kPa, m1 = 0.1551	763.56
348.15 K, 15324 kPa, m1 = 0.2943	770.66
348.15 K, 15326 kPa, m1 = 0.8904	797.27
348.15 K, 19875 kPa, m1 = 0.1551	768.75
348.15 K, 20125 kPa, m1 = 0.2943	775.7
348.15 K, 20875 kPa, m1 = 0.8904	802.64
348.15 K, 25412 kPa, m1 = 0.8904	806.8
348.15 K, 25632 kPa, m1 = 0.2943	781.14
348.15 K, 26038 kPa, m1 = 0.1551	774.93
348.15 K, 30057 kPa, m1 = 0.2943	785.25
348.15 K, 30587 kPa, m1 = 0.8904	811.29
348.15 K, 31412 kPa, m1 = 0.1551	779.95
348.15 K, 35231 kPa, m1 = 0.8904	815.1
348.15 K, 35748 kPa, m1 = 0.1551	783.73
348.15 K, 35942 kPa, m1 = 0.2943	790.36
348.15 K, 39511 kPa, m1 = 0.2943	793.25
348.15 K, 39784 kPa, m1 = 0.1551	787.04
348.15 K, 40005 kPa, m1 = 0.8904	818.78
